Non-standard residues stand in square brackets, D forms with d. Residues, ends and D or L forms follow the SMILES beside them. *: point of attachment. Hydrocinnamoyl = O=C(CCc1ccccc1)*; pS = N[C@@H](COP(=O)(O)O)C(=O)O; X2 = COc1ccc(CC(=O)*)cc1OC
Target: BRCT-BRCA1 (Homo sapiens, UniProt P38398)
Assay: Fluorescence polarization
Assay type: binding

Sequence of BRCT-BRCA1 (P38398 1646-1859 limits assumed): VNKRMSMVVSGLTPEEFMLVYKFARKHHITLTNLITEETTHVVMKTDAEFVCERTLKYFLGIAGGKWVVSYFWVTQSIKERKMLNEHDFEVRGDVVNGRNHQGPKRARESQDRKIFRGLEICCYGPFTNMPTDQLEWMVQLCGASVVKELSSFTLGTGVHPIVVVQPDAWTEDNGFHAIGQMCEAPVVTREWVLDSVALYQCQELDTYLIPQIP

SMILES | fold higher activity than parent peptide 4 (compared to parent peptide 4) | fold loss of activity compared to 9 (compared to mimic 9)
CC(C)[C@H](NC(=O)[C@@H]1CCCN1C(=O)[C@H](COP(=O)(O)O)NC(=O)CCc1ccccc1)C(=O)N[C@@H](Cc1ccccc1)C(=O)O [compound 10] (Hydrocinnamoyl-[pS]PVF-OH; N-terminus assumed) | ~ 3 fold | 
COc1ccc(CC(=O)N[C@@H](COP(=O)(O)O)C(=O)N2CCC[C@H]2C(=O)N[C@H](C(=O)N[C@@H](Cc2ccccc2)C(=O)O)C(C)C)cc1OC [compound 13] (X2-[pS]PVF-OH; N-terminus assumed) |  | ~ 150 fold

Reference: paper PMC3201719 (ACS medicinal chemistry letters, 2011)
